Reference: the supplement of paper PMC11451515

System: SEM cells
Assay: cell viability relative to DMSO control; higher = less cytotoxic
Conditions: 48 h
Procedure, shortened: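 Before seeding, each leukemia line was adapted for at least four passages in each medium. NOMO1 or SEM cells (500 cells/well) and P12-Ichikawa cells (1000 cells/well) went into 1536-well plates at 5 μl, then received library compounds in DMSO by pin dosing across 11 threefold concentrations, 47 μM to 0.79 nM. Readout was CellTiter-Glo One luminescence after 48 h at 37°C, and viability is given as a per-plate percentage of DMSO wells, with cell-free wells as background.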

[1] = HPLM + 10% dialyzed FBS, 0.000781 µM
[2] = HPLM + 10% dialyzed FBS, 0.00234 µM
[3] = HPLM + 10% dialyzed FBS, 0.00702 µM
[4] = HPLM + 10% dialyzed FBS, 0.0211 µM
[5] = HPLM + 10% dialyzed FBS, 0.0632 µM
[6] = HPLM + 10% dialyzed FBS, 0.19 µM
[7] = HPLM + 10% dialyzed FBS, 0.569 µM
[8] = HPLM + 10% dialyzed FBS, 1.71 µM
[9] = HPLM + 10% dialyzed FBS, 5.12 µM
[10] = HPLM + 10% dialyzed FBS, 15.4 µM
[11] = HPLM + 10% dialyzed FBS, 46.1 µM
[12] = RPMI 5 mM glucose + 10% FBS, 0.000781 µM
[13] = RPMI 5 mM glucose + 10% FBS, 0.00234 µM
[14] = RPMI 5 mM glucose + 10% FBS, 0.00702 µM
[15] = RPMI 5 mM glucose + 10% FBS, 0.0211 µM
[16] = RPMI 5 mM glucose + 10% FBS, 0.0632 µM
[17] = RPMI 5 mM glucose + 10% FBS, 0.19 µM
[18] = RPMI 5 mM glucose + 10% FBS, 0.569 µM
[19] = RPMI 5 mM glucose + 10% FBS, 1.71 µM
[20] = RPMI 5 mM glucose + 10% FBS, 5.12 µM
[21] = RPMI 5 mM glucose + 10% FBS, 15.4 µM
[22] = RPMI 5 mM glucose + 10% FBS, 46.1 µM
[23] = RPMI 5 mM glucose + 10% dialyzed FBS, 0.000781 µM
[24] = RPMI 5 mM glucose + 10% dialyzed FBS, 0.00234 µM
[25] = RPMI 5 mM glucose + 10% dialyzed FBS, 0.00702 µM
[26] = RPMI 5 mM glucose + 10% dialyzed FBS, 0.0211 µM
[27] = RPMI 5 mM glucose + 10% dialyzed FBS, 0.0632 µM
[28] = RPMI 5 mM glucose + 10% dialyzed FBS, 0.19 µM
[29] = RPMI 5 mM glucose + 10% dialyzed FBS, 0.569 µM
[30] = RPMI 5 mM glucose + 10% dialyzed FBS, 1.71 µM
[31] = RPMI 5 mM glucose + 10% dialyzed FBS, 5.12 µM
[32] = RPMI 5 mM glucose + 10% dialyzed FBS, 15.4 µM
[33] = RPMI 5 mM glucose + 10% dialyzed FBS, 46.1 µM

Row | SMILES | cell viability [1] | cell viability [2] | cell viability [3] | cell viability [4] | cell viability [5] | cell viability [6] | cell viability [7] | cell viability [8] | cell viability [9] | cell viability [10] | cell viability [11] | cell viability [12] | cell viability [13] | cell viability [14] | cell viability [15] | cell viability [16] | cell viability [17] | cell viability [18] | cell viability [19] | cell viability [20] | cell viability [21] | cell viability [22] | cell viability [23] | cell viability [24] | cell viability [25] | cell viability [26] | cell viability [27] | cell viability [28] | cell viability [29] | cell viability [30] | cell viability [31] | cell viability [32] | cell viability [33]
1 | O=C1c2ccccc2-c2n[nH]c3cccc1c23 | 82.9% | 101% | 121% | 97.9% | 99% | 104% | 5.3% | 102% | 112% | 76.8% | 37.4% | 82% | 107% | 97.3% | 103% | 106% | 107% | 6.25% | 98.2% | 90.5% | 63.6% | 21.2% | 86.6% | 93.9% | 99.1% | 105% | 91% | 116% | 5.93% | 92.9% | 103% | 67.4% | 26.7%
2 | OC[C@H]1OC(O)C[C@@H](O)[C@@H]1O (some centres not stated) | 83.6% | 32.6% | 104% | 99.5% | 92.4% | 96% | 92.8% | 101% | 101% | 97.8% | 97.9% | 95.6% | 26.8% | 118% | 116% | 114% | 115% | 118% | 125% | 109% | 136% | 127% | 97.6% | 37.5% | 116% | 104% | 118% | 113% | 120% | 120% | 109% | 116% | 119%
3 | c1ccc2c(CN3CCNCC3)cccc2c1 | 102% | 102% | 115% | 108% | 100% | 126% | 108% | 107% | 102% | 98.8% | 98.8% | 85.5% | 104% | 98.6% | 107% | 97.4% | 101% | 97.1% | 103% | 92.7% | 101% | 105% | 97.7% | 106% | 126% | 124% | 128% | 122% | 106% | 131% | 95.7% | 103% | 84%
4 | OC1CCC(CC1)N2\C=N/C3=C(C2=N)C(=C([N]3CC4=CC=CC=C4)C5=CC=CC=C5)C6=CC=CC=C6 (configuration not stated) | 117% | 123% | 134% | 116% | 113% | 98.9% | 46.8% | 47.2% | 38.6% | 39% | 41% | 110% | 117% | 131% | 108% | 102% | 97.6% | 47.4% | 39.4% | 37% | 37.8% | 24% |  |  |  |  |  |  |  |  |  |  | 
5 | CCc1nc(N)nc(N)c1-c1ccc(Cl)cc1 | 89% | 95% | 68.1% | 108% | 115% | 106% | 98.9% | 63% | 41% | 47.6% | 36.6% | 77% | 81.2% | 63.4% | 91.9% | 97.1% | 99.3% | 93% | 87.3% | 36% | 93.9% | 83.6% | 77.4% | 92.2% | 70.5% | 96.5% | 98.4% | 92.4% | 95.3% | 101% | 48.6% | 85.9% | 46.6%
6 | C[C@@H](Cc1cc2c(c(C(N)=O)c1)N(CCCO)CC2)NCCOc1ccccc1OCC(F)(F)F | 86.8% | 85.3% | 76.7% | 82.9% | 99% | 96.7% | 95.5% | 97.3% | 101% | 98.1% | 88.7% | 95.1% | 111% | 114% | 112% | 119% | 107% | 121% | 101% | 102% | 110% | 99.2% | 93.4% | 98.3% | 101% | 110% | 123% | 118% | 111% | 142% | 110% | 110% | 82.9%
7 | O=C(O)c1cccnc1 | 111% | 117% | 109% | 118% | 105% | 106% | 98.2% | 37.5% | 14.4% | 9.12% | 6.43% |  |  |  |  |  |  |  |  |  |  |  |  |  |  |  |  |  |  |  |  |  | 
8 | CCOc1ccccc1N/N=C1/C(=O)N(c2nc(-c3ccccc3)cs2)N=C1C | 124% | 114% | 93% | 122% | 105% | 99.2% | 100% | 86.4% | 45.9% | 8.56% | 3.58% | 103% | 114% | 102% | 116% | 144% | 110% | 111% | 70.7% | 70% | 9.65% | 2.74% | 114% | 106% | 101% | 115% | 106% | 97.4% | 81.7% | 77.1% | 59.4% | 9.71% | 3.01%
9 | O=C1\C=C(OC2=C(C=CC=C12)C3=CC=CC4=C3SC5=C4C=CC=C5)\N6CCOCC6 | 110% | 103% | 121% | 120% | 124% | 115% | 107% | 104% | 96.9% | 89.9% | 91.2% | 133% | 104% | 105% | 138% | 109% | 112% | 112% | 114% | 73% | 60.2% | 62.7% | 129% | 109% | 116% | 123% | 116% | 123% | 122% | 113% | 78.5% | 75.7% | 76%
10 | COc1cc2c(cc1O)CCC1C2CC[C@@]2(C)C1CC[C@@H]2O (some centres not stated) | 88.7% | 114% | 98.4% | 25.9% | 108% | 113% | 95.8% | 73.2% | 40.7% | 31.4% | 26.2% | 120% | 108% | 129% | 22% | 124% | 125% | 107% | 84.2% | 49.1% | 23.5% | 21.7% | 116% | 118% | 126% | 24.6% | 118% | 123% | 108% | 88.7% | 40.2% | 26.5% | 28.2%
